15 compounds from patent US5627191A, “Therapeutic agents” (The Boots Company PLC, priority 1992, dated 1997) can be followed below.

Structures are written as SMILES. Counter-ions that a name gives are not always drawn. Bounds are passed on as bounds.

As a reminder, the Ki is the equilibrium dissociation constant of an inhibitor or competing ligand from its target.

The target of test [1] is T1, adrenal membrane angiotensin II receptor (Oryctolagus cuniculus, UniProt P34976).
T1 construct: Aliquots of rabbit adrenal membranes containing 10-30 μg protein were incubated; from tissue; host or cells: adrenal gland membranes of male New Zealand white rabbits
T1 sequence (P34976 1-359): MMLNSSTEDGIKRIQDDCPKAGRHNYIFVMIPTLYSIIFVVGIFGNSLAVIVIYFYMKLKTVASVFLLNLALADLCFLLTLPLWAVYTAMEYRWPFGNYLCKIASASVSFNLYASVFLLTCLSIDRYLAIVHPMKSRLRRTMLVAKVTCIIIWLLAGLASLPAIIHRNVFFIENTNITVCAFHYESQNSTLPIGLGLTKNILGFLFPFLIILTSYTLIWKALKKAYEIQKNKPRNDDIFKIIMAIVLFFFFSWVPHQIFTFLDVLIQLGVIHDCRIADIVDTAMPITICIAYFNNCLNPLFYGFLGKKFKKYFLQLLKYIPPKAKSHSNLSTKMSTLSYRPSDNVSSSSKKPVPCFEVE
Briefly: Test A: binding affinity to the adrenal membrane angiotensin II receptor in vitro. Set-up: species or system rabbit (male New Zealand white). Conditions: rabbit adrenal membranes, 0.05 nM [^125 I]angiotensin II, 60 minutes at 25° C.; read-out: Ki from Test A. On the procedure: In test A the binding affinity of compounds to the adrenal membrane angiotensin II receptor was determined in vitro and in tests B and C the antihypertensive effect of the compounds was measured in vivo. A detailed description of the tests follows. Test A 1) Preparation of Membranes Adrenal glands from male New Zealand white rabbits were homogenised on ice in 20 mM aqueous sodium bicarbonate solution containing 50 μM PMSF (phenylmethanesulphonyl fluoride) (2 ml/g wet weight) using a Polytron (Trademark) homogeniser for 3×15 seconds at setting 8. The homogenate was centrifuged at 900 g for 10 minutes at 4° C. and the pellet was discarded. The supernatant was recentrifuged at 30000 g for 30 minutes at 4° C., and the resulting pellet was resuspended in assay buffer (50 mM Tris-HCl, pH 7.4, containing 1 mM EDTA, 6.5 mM MgCl2, 125 mM NACl, 50 μM PMSF, 5 μg/ml pepstatin and 50 μg/ml each of leupeptin, antipain, aprotinin and chymostatin): 10 ml per g original tissue wet weight. Polyethylene glycol was added (final concentration 30%) as a cryopreservant and the membrane preparation divided into aliquots and stored at -80° C. until required. Protein was determined by a modification of the method of Lowry (Markwell et al, (1978) Anal. Biochem., 87: 206-210). 2) Binding Assay Aliquots of rabbit adrenal membranes containing 10-30 μg protein were incubated with 0.05 nM [^125 I]angiotensin II in the presence or absence of potential angiotensin II antagonists in 1 ml polyamide tubes in a total volume of 200 μI assay buffer. After incubation for 60 minutes am 25° C. the reaction was terminated by the addition of ice-cold assay buffer, and the bound and free radioactivity was separated through Skatron (Trademark) receptor-binding filters, pre-wetted with assay buffer, using a Skatron cell harvester. The filters were washed with ice-cold phosphate buffered saline, dried, and the trapped radioactivity was determined using a gamma counter. Non-specific binding, measured in the presence of 2 μM unlabelled angiotensin II, was subtracted from total binding to obtain specific binding. Radioligand binding curves were analysed using EBDA and LIGAND (Cambridge Biosoft). Values for binding affinity were obtained by nonlinear regression analysis of untransformed data. The activities of the compounds described in the Examples given hereinafter are set out below in Table A, Column 1.

Test [2] concerns Aoki-Okamoto strain of spontaneously hypertensive rat. Briefly: Test B: oral antihypertensive effect, threshold dose. The format is in vivo. As to conditions: dose giving a reduction of blood pressure of between 9 and 16% after correction, 1.5 and 5.0 hours after dosing; for minimal effective dose: Rattus norvegicus, po, 5 h, read-out: Threshold anti-hypertensive dose from Test B. As to the method: (§1) In test A the binding affinity of compounds to the adrenal membrane angiotensin II receptor was determined in vitro and in tests B and C the antihypertensive effect of the compounds was measured in vivo. A detailed description of the tests follows.
(§2) Female rats, weight range 180-240 g, of the Aoki-Okamoto strain of spontaneously hypertensive rat were used. The rats in groups of four were fasted overnight before administration of the test compound. Blood pressure was determined in the following way. The rats were placed in a cabinet kept at 38° C. with their tails protruding through holes in the cabinet. After 30 minutes in the cabinet blood pressure was measured using an inflatable cuff placed round the base of the mail and arterial pulsations monitored with a pneumatic pulse transducer. […] The pressure in the cuff at which arterial pulsations reappeared was taken as the blood pressure. The rats were removed from the cabinet and each group orally dosed with a given dose of the test compound given as a solution or suspension in 0.25% aqueous carboxymethylcellulose. In addition to the predose reading, blood pressure was measured at 1.5 and 5.0 hours after dosing. The degree of blood pressure reduction sufficient to achieve a significance level of p<0.01 compared to controls was 9% after correction for control changes at appropriate time intervals. Thus, compounds were considered to be active in this test if they produced a reduction of blood pressure after correction of 9% or greater than 9%.
(§3) Threshold antihypertensive doses of compounds of formula I were determined in the following way. Compounds were tested initially at a particular dose level, for example 90 mg/kg.
The activities of the compounds described in the Examples given hereinafter are set out below in Table A, Column 2.

For test [3] the test system is unchanged. The test is described as follows: Test C: oral antihypertensive effect after pretreatment with bendrofluazide, threshold dose. Format: in vivo. Conditions: pretreated with bendrofluazide 10 mg/kg at 16 hours and 2 hours prior to dose. On the procedure:
as §1, §2, §3
The procedure of Test B above was carried out subject to the modification of pretreating the rats with bendrofluazide 10 mg/kg (an orally administered diuretic) at 16 hours and 2 hours prior to the dose of the test compound, to ensure activation of the reninangiotensin system.
The activities of the compounds described in the Examples given hereinafter are set out below in Table A, Column 3.

With `CCc1nc2c(C)cc(C)nc2n1Cc1ccc(-c2ccccc2-c2c(O)c(=O)c2=O)cc1` (single isomer, unassigned) [Example 4, 3-[4'-(2-ethyl-5,7-dimethyl-3H-imidazo[4,5-b]pyrid-3-ylmethyl)biphenyl-2-yl]-4-hydroxycyclobut-3-ene-1,2-dione], the Ki in test [1] was 5 nM. Moreover, the “Threshold anti-hypertensive dose from Test B” value in test [2] stood at 0.1 mg/kg. Also, the “Threshold anti-hypertensive dose from Test C” value in test [3] is 0.1 mg/kg.

In the case of `CCc1nc2c(C)cc(C)nc2n1Cc1ccc(-c2ccccc2-c2c(O)c(=O)c2=O)cc1` (single isomer, unassigned) [Example 5, sodium salt of 3-[4'-(2-ethyl-5,7-dimethyl-3H-imidazo[4,5-b]pyrid-3-ylmethyl)biphenyl-2-yl]-4-hydroxycyclobut-3-ene-1,2-dione], in test [1], the Ki is 1.78 nM. For the same compound, the “Threshold anti-hypertensive dose from Test B” value in test [2] is 1 mg/kg. Also, in test [3], the “Threshold anti-hypertensive dose from Test C” value is 1 mg/kg.

Regarding `CCc1nc2c(C)cc(C)nc2n1Cc1ccc(-c2ccccc2-c2c(OC(C)C)c(=O)c2=O)cc1` [Example 1, 3-[4'-(2-ethyl-5,7-dimethyl-3H-imidazo[4,5-b]pyrid-3-ylmethyl)biphenyl-2-yl]-4-isopropoxycyclobut-3-ene-1,2-dione], in test [1], the Ki is 97.6 nM. Further, the “Threshold anti-hypertensive dose from Test C” value in test [3] came to 30 mg/kg.

With `CCc1nc2c(C)cc(C)nc2n1Cc1ccc(-c2ccccc2-c2c(N)c(=O)c2=O)cc1` [Example 6, 3-amino-4-[4'-(2-ethyl-5,7-dimethyl-3H-imidazo[4,5-b]pyrid-3-ylmethyl)biphenyl-2-yl]cyclobut-3-ene-1,2-dione], the Ki in test [1] worked out at 400 nM.

As to `CCCc1nc2c(C)cc(C)nc2n1Cc1ccc(-c2ccccc2-c2c(O)c(=O)c2=O)cc1` [Example 8, 3-[4'-(5 7-dimethyl-2-propyl-3H-imidazo[4,5-b]pyrid-3-ylmethyl)biphenyl-2-yl]-4-hydroxycyclobut-3-ene-1,2-dione], the Ki in test [1] amounted to 3.19 nM. In test [2], the minimal effective dose came out at 10 mg/kg. Also, the “Threshold anti-hypertensive dose from Test C” value in test [3] is < 10 mg/kg.

With `CCCc1nc2c(C)cc(C)nc2n1Cc1ccc(-c2ccccc2-c2c(O)c(=O)c2=O)cc1` [Example 9, sodium salt of 3-[4'-(5,7-dimethyl-2-propyl-3H-imidazo[4,5-b]-pyrid-3-ylmethyl)biphenyl-2-yl]-4-hydroxycyclobut-3-ene-1,2-dione], in test [1], the Ki is 3.71 nM. Also, the “Threshold anti-hypertensive dose from Test B” value in test [2] was found to be 10 mg/kg. Further, the “Threshold anti-hypertensive dose from Test C” value in test [3] came to 0.1 mg/kg.

Consider `CCc1nc2c(C)c(S(=O)(=O)N(C)C)c(C)nc2n1Cc1ccc(-c2ccccc2-c2c(O)c(=O)c2=O)cc1` [Example 11, 2-ethyl-3-[2'-(2-hydroxy-3,4-dioxocyclobut-1-en-1-yl)biphenyl-4-ylmethyl]-5,7, N,N-tetramethyl-3H-imidazo[4,5-b]pyridine-6-sulphonamide mono-ethyl acetate solvate], for which, in test [1], the Ki amounted to 393 nM.

Consider `CCc1nc2c(C)c(Cl)c(C)nc2n1Cc1ccc(-c2ccccc2-c2c(O)c(=O)c2=O)cc1` [Example 12, 3-[4'-(6-chloro-2-ethyl-5,7-dimethyl-3H-imidazo-[4,5-b]pyrid-3-ylmethyl)biphenyl-2-yl]-4-hydroxy-cyclobut-3-ene-1,2-dione hydrochloride], for which the Ki in test [1] was 13.3 nM.

As for `CCc1nc2c(C)cc(C)nc2n1Cc1ccc(-c2ccccc2-c2c(OCOC(=O)C(C)(C)C)c(=O)c2=O)cc1` [Example 13, 2-[4'-(2-ethyl-5,7-dimethyl-3H-imidazo[4,5-b]pyrid-3-ylmethyl)biphenyl-2-yl]-3,4-dioxocyclobut-1-en-1-yloxymethyl pivalate], the Ki in test [1] was 19 nM. For the same compound, in test [2], the minimal effective dose is 10 mg/kg. The “Threshold anti-hypertensive dose from Test C” value in test [3] is on record as < 10 mg/kg.

Regarding `CCCc1nc(CC)c(C=O)n1Cc1ccc(-c2ccccc2-c2c(O)c(=O)c2=O)cc1` [Example 15, 4-ethyl-1-[2'-(2-hydroxy-3,4-dioxocyclobut-1-en-1-yl)biphenyl-4-ylmethyl]-2-propyl-1H-imidazole-5-carboxaldehyde], the Ki in test [1] was 13.5 nM. The “Threshold anti-hypertensive dose from Test C” value in test [3] is reported as 3 mg/kg.

In the case of `CCCCN(Cc1ccc(-c2ccccc2-c2c(O)c(=O)c2=O)cc1)c1ncncc1C(=O)O` [Example 20, 4-[N-butyl-N-[2'-(2-hydroxy-3,4-dioxocyclobut-1-en-1-yl)biphenyl-4-ylmethyl]amino]pyrimidine-5-carboxylicacid 0.6 hydrochloride], the Ki in test [1] was determined as 81.7 nM. The minimal effective dose in test [2] was 3 mg/kg. Further, the “Threshold anti-hypertensive dose from Test C” value in test [3] was 1 mg/kg.

Turning to `CCCCC1=NC2(CCCC2)C(=O)N1Cc1ccc(-c2ccccc2-c2c(O)c(=O)c2=O)cc1` [Example 22, 3-[4'-(2-butyl-5-oxo-2-imidazoline-4-spirocyclopent-1-ylmethyl)biphenyl-2-yl]-4-hydroxycyclobut-3-ene-1,2-dione], the Ki in test [1] is 3.68 nM. Besides, the “Threshold anti-hypertensive dose from Test C” value in test [3] is 30 mg/kg.

For `CCCCc1nc(Cl)c(C=O)n1Cc1ccc(-c2ccccc2-c2c(O)c(=O)c2=O)cc1` [Example 24, 2-butyl-4-chloro-1-[2'-(2-hydroxy-3,4-dioxocyclobut-1-en-1-yl)biphenyl-4-ylmethyl]-1H-imidazole-5-carboxaldehyde], the Ki in test [1] came out at 11.1 nM. Further, in test [3], the “Threshold anti-hypertensive dose from Test C” value was 3 mg/kg.

For the compound `CCCCc1nc(Cl)c(C(=O)OC)n1Cc1ccc(-c2ccccc2-c2c(O)c(=O)c2=O)cc1` [Example 28, methyl 2-butyl-4-chloro-1-[2'-(2-hydroxy-3,4-dioxo-cyclobut-1-en-1-yl)biphenyl-4-ylmethyl]-1H-imidazole-5-carboxylate], the Ki in test [1] came out at 27.7 nM. Besides, the “Threshold anti-hypertensive dose from Test C” value in test [3] was 10 mg/kg.

For `CCCCc1nc(Cl)c(/C=C(\Cc2ccccc2)C(=O)O)n1Cc1ccc(-c2c(O)c(=O)c2=O)cc1` [Example 30, (E)-2-benzyl-3-[2-butyl-4-chloro-1-[4-(2-hydroxy-3,4-dioxocyclobut-1-en-1-yl)benzyl]-1H-imidazol-5-yl]propenoic acid], the Ki in test [1] was found to be 77.9 nM. Also, the “Threshold anti-hypertensive dose from Test C” value in test [3] was ≤ 10 mg/kg.
